# Target: T1, Enoyl-[acyl-carrier-protein] reductase [NADPH] FabI (Staphylococcus aureus, UniProt Q6GI75)
# T1 sequence (Q6GI75 whole entry): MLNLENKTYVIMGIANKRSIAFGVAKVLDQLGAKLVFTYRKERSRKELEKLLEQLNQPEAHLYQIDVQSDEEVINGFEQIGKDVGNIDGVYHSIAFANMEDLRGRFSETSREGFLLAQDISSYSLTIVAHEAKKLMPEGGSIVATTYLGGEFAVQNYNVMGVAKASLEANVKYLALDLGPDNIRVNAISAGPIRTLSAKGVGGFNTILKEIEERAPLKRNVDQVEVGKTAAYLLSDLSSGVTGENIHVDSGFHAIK
# Test: Tight-binding assay: Kinetics were performed on a Cary 100 spectrophotometer (Varian) at 20° C. Reaction velocities were measured by monitoring the oxidation of NAD(P)H to NAD(P)+ at 340 nm (Figure US10071965-20180911-P00001=6220 M−1 cm−1). For saFabI, the reaction mixture was identical to that described previously for progress curve experiments (Schiebel et al. (2012). Structure 20:802-13). For ecFabI, the final reaction mixture contained ecFabI (75 nM), trans-2-butenoyl-CoA (800 μM; Sigma and Advent Bio), NADH (300 μM; Sigma), NAD+ (400 μM; Sigma), and inhibitor (2 v/v % DMSO) in 50 mM potassium phosphate, pH 7.5, 150 mM NaCl, 8 v/v % glycerol. For InhA, the final reaction mixture contained InhA (100 nM), trans-2-octenoyl-CoA (200 μM), NADH (250 μM), NAD+ (200 μM), and inhibitor (2 v/v % DMSO) in 30 mM PIPES, pH 6.8, 150 mM NaCl, 1 mM EDTA, 8 v/v % glycerol. The resulting curves were fit to the Morrison and Walsh integrated rate equation (Equation 1) (Morrison et al.
smiles,measurement,value
Oc1ccccc1Oc1ccccc1,Ki,24.5 µM

# Reference: ChEMBL document CHEMBL5725612, “Pyridone FabI inhibitors and uses thereof” (2018)
